*1 amine or outer side, *2 acyl side, *3 side chain or, on linkers, in order; H or OH if unused. Where a SMILES comes first, the peptide text is derived from it. Bridges are numbered along the chain shown (N, C = ends). [ ]: non-standard residue; d: D form. The star is where a group is joined. Met(S-mXyl) = C[S+](CC[C@H](N[*:1])C(=O)[*:2])Cc1cccc(C[*:3])c1; 5FAM = O=C1OC2(c3ccc(O)cc3Oc3cc(O)ccc32)c2ccc(C(=O)*)cc21
Assays:
[1] = target: cJun (Homo sapiens, UniProt P05412); experiment: Western blot of cJun levels in cell lysate after peptide addition; assay type: biochemical; parameters: endogenous in cells; host or cells: SK-MEL-28; settings: SK-MEL-28 cell lysate with protease inhibitor cocktail, 30 µM peptide, 37 °C, 5 mM TCEP, pH 7.4, western blot over time
Procedure: Figure S25 – cJun protein levels in SK-MEL-28 cell lysate (with the addition of Roche cOmplete protease inhibitor cocktail) upon addition of 30 µM FAM-HW33-NLSTAT, determined over time by western blot. Cells were lysed by sonication in 20 mM KP, 150 mM NaCl, 5 mM TCEP, pH 7.4 and incubated at 37°C after peptide addition. Uncropped blots are also shown.

[2] = tested on: SK-MEL-28 cells; experiment: Cell imaging of FAM-peptide uptake; assay type: cell-based, human; settings: SK-MEL-28, 10 and 30 µM, 6 h, 37 °C, fixed, DAPI counterstain, fluorescence microscopy
Procedure: Cell imaging: Cells were seeded at 40,000 cells per well in a […] and incubated for 24 hours before treatment with vehicle (1% DMSO in water) or peptide for 6 hours. The media was removed and the cells were washed 3x with PBS. 1 mL of paraformaldehyde (80 mg/mL in PBS) was added and incubated at room temperature for 10 minutes. The paraformaldehyde was removed and fixed cells were washed with 3x PBS. 500 µL of DAPI (1 µg/mL) was then added and incubated at room temperature for 5 minutes following by a 3x PBS wash. Cells were imaged using an Evos FL digital inverted fluorescence microscope using brightfield and both GFP (for the FAM label) and DAPI fluorescence filters.

[3] = tested on: SK-MEL-28 cells; experiment: MTT cell viability assay; assay type: cell-based, human; settings: SK-MEL-28, 30 µM
Procedure: Cell viability assay: Cells were seeded at 15,000 cells per well in a 96-well plate and incubated for 24 hours before treatment with vehicle (1% DMSO in water) or peptide for 6 or 24 hours. The media was removed and the cells were washed twice with PBS before 50 µL of MTT (1 mg/mL in PBS, Merck) was added and incubated at 37°C for 30 minutes. The MTT solution was removed and 100 µL isopropanol was added to each well and rocked at room temperature for 5 minutes. Absorbance at 595 nm was measured using a Clariostar plate reader. Unless otherwise stated, all data are reported as an average of three independent biological experiments, with each data point determined in triplicate (i.e. 9 measurements) and reported as the mean with errors given as one standard deviation. For data with one independent measurement, each data point was determined in triplicate i.e. 3 measurements and reported as the mean with errors given as one standard deviation.

[4] = target: CREB1 (Homo sapiens, UniProt P16220); experiment: Selectivity: incubation with CREB1 monitored by SDS-PAGE; assay type: biochemical; settings: HW33 40 µM + CREB1 20 µM, 24 h
Procedure: The selectivity of this reaction, which is highly proximity‐driven, was first investigated by incubating HW33 (40 µM) with CREB1 (20 µM), a closely related bZIP‐containing TF that contains a Cys residue at the same position within the bZIP domain as cJun. Moreover, CREB1 contains two additional Cys residues located within the LZ domain that are not found within cJun. […] To further investigate HW33 selectivity for cJun, a reaction was next undertaken in SK‐MEL‐28 human melanoma cell lysate using FAM‐HW33, in which the N‐terminal acetyl group of HW33 was replaced with carboxyfluorescein to allow for peptide detection (Figure S17, Supporting Information). Samples containing cJun bZIP (20 µM) and FAM‐HW33 (20 µM) were incubated with or without lysate (10 µg) at 37 °C for 4 h before analysis by SDS‐PAGE (Figure 4E). […]
Covalent conjugation assays: Initial tests were performed by incubation of HW32 and HW33 (40 µM) with cJun bZIP (20 µM) in 50 mM potassium phosphate butter, 150 mM NaCl, pH 7.4 at 37°C, shaking at 450 rpm. […] The samples were analysed by LC-MS on a Luna C18(2) column (5-μm particle size, 100 Å pore size, 150 × 4.6 mm; Phenomenex). The % occupancy was determined by the ratio of conjugated cJun over total cJun as determined by the area under the peaks in the chromatogram measured at a 215 nm wavelength, with their identity confirmed by ESI-MS. […]

[5] = target: T1, cJun/FAM-TRE DNA (Homo sapiens, UniProt P05412); experiment: Fluorescence polarisation cJun/FAM-TRE DNA antagonism time course; assay type: biochemical; settings: 10 nM FAM-TRE, 625 nM cJun, peptide 10000-20 nM, 5 mM TCEP, pH 7.4; quadruplicate
T1 construct: LC-MS analysis of the cJun bZIP domain; made in house

[6] = target: T2, cJun/TRE DNA (Homo sapiens, UniProt P05412); experiment: CD cJun/TRE DNA antagonism assay (TRE DNA signal at 281 nm); assay type: biochemical
T2 construct: LC-MS analysis of the cJun bZIP domain; made in house
Excerpt: CD antagonism experiments were next carried out, as previously described,^[ [13], [18] ^] whereby the structure of a TRE DNA duplex was monitored by following a peak at 281 nm, which shifts upon binding to cJun. The introduction of antagonist to the sample causes the peak to shift back to its unbound signal in a dose‐dependent manner as the cJun is sequestered, leaving unbound DNA in its original structure (Figure S9, Supporting Information). As there is no protein absorbance in this region of the CD spectrum, this measures DNA structure only and produces a simple readout of the proportion of free/cJun‐bound DNA at different antagonist concentrations. By fitting these plots to a Hill equation (OriginPro), IC50 values for HW1, HW29, and HW31 were determined in both reducing and oxidizing conditions (Table S1, Supporting Information; Figure 3C).
Circular dichroism (CD): An Applied Photophysics Chirascan was used for CD measurements, with a 200 µL sample in a 1 mm path length CD cell. Protein/DNA samples were suspended in 20 mM potassium phosphate,150 mM potassium fluoride at pH 7.4 with or without 5 mM TCEP. cJun was added to TRE DNA (5’-[…], Merck) before addition of antagonist peptide and these samples were equilibrated for 30 minutes before measurement.^[13] For full spectra, three scans between 190 and 260 nm (265-320 nm for DNA binding experiments) were collected with a bandwidth of 1 nm and data sampled at a rate of 0.5 s^-1. These scans were averaged and converted to molar residue ellipticities (MRE). Thermal denaturation experiments were performed by measuring the ellipticity at 222 nm over a 1 to 95°C gradient at 1°C increments. Post-melt scans at 20°C confirmed the transitions were reversible as they overlaid within 5% of the pre-melt scan. The resulting thermal denaturation curves were converted to MRE and fitted to a two-state model, derived via modification of the Gibbs–Helmholtz equation to determine the melting temperature (Tm) ^[26].

T2 sequence (P05412 252-315 limits assumed): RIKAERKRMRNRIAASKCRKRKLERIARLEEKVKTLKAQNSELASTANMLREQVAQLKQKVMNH
T1 sequence (P05412 252-315 limits assumed): as above
Sequence of CREB1 (P16220 whole entry, species assumed, the tested form may be a part): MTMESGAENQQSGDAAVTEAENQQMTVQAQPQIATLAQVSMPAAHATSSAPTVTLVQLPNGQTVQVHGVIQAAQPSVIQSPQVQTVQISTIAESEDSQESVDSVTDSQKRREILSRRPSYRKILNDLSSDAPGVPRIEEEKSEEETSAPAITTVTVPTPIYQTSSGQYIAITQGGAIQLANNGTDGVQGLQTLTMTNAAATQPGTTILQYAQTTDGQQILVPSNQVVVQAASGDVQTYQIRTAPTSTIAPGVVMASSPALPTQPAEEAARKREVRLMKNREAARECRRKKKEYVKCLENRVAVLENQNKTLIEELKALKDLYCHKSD
Sequence of cJun (P05412 whole entry): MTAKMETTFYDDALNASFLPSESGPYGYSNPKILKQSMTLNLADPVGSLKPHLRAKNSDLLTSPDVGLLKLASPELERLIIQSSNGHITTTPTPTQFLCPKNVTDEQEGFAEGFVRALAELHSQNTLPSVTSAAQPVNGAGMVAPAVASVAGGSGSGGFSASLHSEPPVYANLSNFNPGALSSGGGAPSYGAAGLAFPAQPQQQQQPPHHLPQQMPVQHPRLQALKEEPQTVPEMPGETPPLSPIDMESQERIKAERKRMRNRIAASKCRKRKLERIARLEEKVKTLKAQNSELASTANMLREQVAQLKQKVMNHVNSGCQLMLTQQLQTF

Compound	cJun depletion in cell lysate [1]	Cellular uptake (FAM fluorescence within cells) [2]	Fold larger reduction in cell viability relative to HW1 [3]	Conjugation with CREB1 [4]	Time dependence of FP antagonism compared with HW1 [5]	Fold increase in antagonism over the 4 h time course ([6]; CD antagonism time course)	Time dependence of CD antagonism compared with HW1 ([6]; IC50 plotted over time)
5FAM-E[Met(S-mXyl)]EELCVEEDVLEEEIEQLEERNYALRKEIKDLQDQPKKKRKVYGRKKRRQRRR-NH2 (thioether 2-6; lactam 31-35) [FAM-HW33-NLSTAT]	cJun depletion effect was also observed in cell lysate	FAM fluorescence was observed within the cells	2.2 x				
CC[C@H](C)[C@H](NC(=O)[C@H](CCC(=O)O)NC(=O)[C@H](CCCCN)NC(=O)[C@H](CCCNC(=N)N)NC(=O)[C@H](CC(C)C)NC(=O)[C@H](C)NC(=O)[C@H](Cc1ccc(O)cc1)NC(=O)[C@H](CC(N)=O)NC(=O)[C@H](CCCNC(=N)N)NC(=O)[C@H](CCC(=O)O)NC(=O)[C@H](CCC(=O)O)NC(=O)[C@H](CC(C)C)NC(=O)[C@H](CCC(N)=O)NC(=O)[C@H](CCC(=O)O)NC(=O)[C@@H](NC(=O)[C@H](CCC(=O)O)NC(=O)[C@H](CCC(=O)O)NC(=O)[C@H](CCC(=O)O)NC(=O)[C@H](CC(C)C)NC(=O)[C@@H](NC(=O)[C@H](CC(=O)O)NC(=O)[C@H](CCC(=O)O)NC(=O)[C@H](CCC(=O)O)NC(=O)[C@@H](NC(=O)[C@@H]1CSCc2cccc(c2)C[S+](C)CC[C@H](NC(=O)[C@H](CCC(=O)O)NC(C)=O)C(=O)N[C@@H](CCC(=O)O)C(=O)N[C@@H](CCC(=O)O)C(=O)N[C@@H](CC(C)C)C(=O)N1)C(C)C)C(C)C)[C@@H](C)CC)C(=O)N[C@H]1CCCCNC(=O)C[C@@H](C(=O)N[C@@H](CCC(N)=O)C(N)=O)NC(=O)[C@H](CCC(N)=O)NC(=O)[C@H](CC(C)C)NC(=O)[C@H](CC(=O)O)NC1=O (stereo partly shown) [HW33] (Ac-E[Met(S-mXyl)]EELCVEEDVLEEEIEQLEERNYALRKEIKDLQDQ-NH2; thioether 2-6; lactam 31-35)				no conjugation observed	improved antagonism over HW1 after 240 minutes	5 fold	improved antagonism over HW1 after 60 min

Source: article PMC12079500, “An Intracellular Peptide Library Screening Platform Identifies Irreversible Covalent Transcription Factor Inhibitors” (Advanced Science, 2025)
